Test results from patent US5169852A, “Method of suppressing appetite by administration of tetrahydro-beta-carboline derivatives” (priority 1990, dated 1992).
Entries after “also recorded” stand apart in the source; their conditions may differ. Counter-ions that a name gives are not always drawn. Like-named read-outs stand apart in the source and are kept apart here.

Assays:
[1] = Reduction of food intake in fasted rats, intraperitoneal (IC50 from dose-response curve); assay type: in vivo, rat; details: ip
Description: The measured food intake was plotted as a function of the natural logarithm of the drug concentration (ln(Dose)) given to the animal for each of the compounds listed above. A dose response curve of the functional form: Intake =α+(1-α)/[1+exp(β- ln(Dose))]was fit to each of the data sets using the NONLIN feature of the Systat™ statistical analysis software package for the Macintosh™ (Systat, Evanston, Il).

[2] = cited from earlier work; for effect on feeding (hyperphagic / anorectic): S. Cooper
[3] = Partial appetite suppression: food intake over one hour vs dose (FIG. 5); assay type: in vivo; details: rat
Description: Adult male rats weighing between 250 and 300 g were acclimated to laboratory conditions for a period of 4-5 days, during which they were allowed unrestricted access to food (Ralston-Purina #5001M) and water. All animals were housed in individual cages. The animal facility was maintained on a 12:12 hr light-dark schedule at 22° C.
Fasted animals were sorted into groups of 10-12 each by weight and baseline food intake. Each was then given saline containing 0-32 mg/Kg of a compound of the invention (or THBC) by intraperitoneal injection. After 20 minutes, animals were allowed access to food and water. Cumulative food intake was measured at 1 hour post-injection.
Reduction in food intake over one hour was measured against the dose per unit body weight for THBC and compound 14. The results are shown in FIG. 5A, which compares compound 14 with THBC.

[4] = tested on: benzodiazepine receptors; details: Skolnick; Robertson; cited from earlier work
[5] = rats; cited from earlier work
[6] = tested on: 5 HT efflux; details: brain slices; cited from earlier work
[7] = tested on: brain 5-hydroxytryptamine (5-HT) binding sites; details: cited from earlier work
[8] = tested on: 5-HT oxidative deamination; details: cited from earlier work
[9] = tested on: brain tryptamine binding sites; details: cited from earlier work
[10] = systemic, rodents; cited from earlier work
[11] = parenteral, rats; cited from earlier work
[12] = cited from earlier work
[13] = tested on: brain spiperone binding sites; details: cited from earlier work
[14] = tested on: brain imipramine binding sites; details: cited from earlier work
[15] = tested on: 5-HT uptake; details: brain synaptosomes; cited from earlier work
[16] = cited from earlier work; remark: listed apart in the source
[17] = human, in vivo; cited from earlier work
[18] = Rattus norvegicus, 1 h, read-out: Activity LOG (IC50), reduction of food intake
[19] = Rattus norvegicus, 1 h, read-out: Log (1/IC50) Measured
[20] = rat, intraperitoneal, 1 hour food intake, Table 2, read-out: Activity LOG (IC50), reduction of food intake (converted)
[21] = rat, intraperitoneal, 1 hour food intake, Table 3, read-out: Log (1/IC50) Measured (converted)

Molecule: Fc1ccc2[nH]c3c(c2c1)CCNC3 [Compound 4, 6-fluoro-1,2,3,4 tetrahydro-β-carboline hydrochloride]
- ED50 [1, 18]: 0.0257 µmol/kg
- ED50 [1, 19]: 38.9 µmol/kg

Molecule: CCOC(=O)c1ncc2[nH]c3ccc(OCc4ccccc4)cc3c2c1COC [ethyl 6-benzyloxy-4-meth-oxymethyl-β-carboline-3-carboxylate]
- effect on feeding (hyperphagic / anorectic) [2]: hyperphagic

Molecule: CC1NCCc2c1[nH]c1ccccc21 (stereo not shown) [Compound 7]
- ED50 [1, 19]: 100 µmol/kg

Molecule: CCn1c2c(c3ccccc31)CCNC2 [Compound 20, 9-ethyl-1,2,3,4-tetrahydro-β-carboline hydrochloride]
- ED50 [1, 20]: 0.0309 µmol/kg
- ED50 [1, 21]: 32.4 µmol/kg

Molecule: COc1ccc2[nH]c3c(c2c1)CCNC3 [Compound 2, 6-methoxy-1,2,3,4-tetrahydro-β-carboline]
- ED50 [1, 18]: 0.0162 µmol/kg
- ED50 [1, 19]: 61.7 µmol/kg

Molecule: Cc1ccc2[nH]c3c(c2c1)CCNC3 [Compound 12]
- ED50 [1, 21]: 30.9 µmol/kg

Molecule: O=C(O)C1Cc2c([nH]c3ccccc23)CN1 (racemic) [Compound 14, (±) 3-carboxyl-1,2,3,4-tetrahydro-β-carboline]
- feeding depression / dose-response behavior [3]: will not depress feeding behavior over a comparatively large feeding range; also recorded: moderate feeding depression over a broad dosage range
- ED50 [1, 20]: 0.0331 µmol/kg
- ED50 [1, 21]: 30.2 µmol/kg

Molecule: c1ccc(Cn2c3c(c4ccccc42)CCNC3)cc1 [Compound 19, 9 benzyl-1,2,3,4-tetrahydro-β-carboline hydro-chloride]
- ED50 [1, 20]: 0.0447 µmol/kg
- ED50 [1, 21]: 22.4 µmol/kg

Molecule: Cc1cccc2[nH]c3c(c12)CCNC3 [Compound 17]
- ED50 [1, 21]: 30.2 µmol/kg

Molecule: CCCCCn1c2c(c3ccccc31)CCNC2 [Compound 23, 9-(n-pentyl)-1,2,3,4-tetrahydro-β-carboline hydrochloride]
- ED50 [1, 20]: 0.055 µmol/kg
- ED50 [1, 21]: 18.2 µmol/kg

Molecule: COC(=O)C1Cc2c([nH]c3ccccc23)CN1 (stereo not drawn) [3-carbomethoxy-1,2,3,4-tetrahydro-β-carboline]
- binding affinity to benzodiazepine receptors [4]: very low affinity

Molecule: CCC1Cc2c([nH]c3ccccc23)CN1 (stereo not shown) [Compound 13]
- ED50 [1, 21]: 77.6 µmol/kg

Molecule: CCCCCn1c2c(c3cc(C)ccc31)CCNC2 [Compound 21, 6-Methyl-9-(n-pentyl)-1,2,3,4-tetrahydro-β-carboline hydrochloride]
- ED50 [1, 20]: 0.0589 µmol/kg
- ED50 [1, 21]: 17 µmol/kg

Molecule: O=Cn1c2c(c3ccccc31)CCNC2 [Compound 18]
- ED50 [1, 21]: 91.2 µmol/kg

Molecule: Cc1cccc2c3c([nH]c12)CNCC3 [Compound 10, 8-methyl-1,2,3,4-tetrahydro-β-carboline hydrochloride]
- ED50 [1, 20]: 0.0162 µmol/kg
- ED50 [1, 21]: 61.7 µmol/kg

Molecule: O=C(O)C1Cc2c([nH]c3ccc(O)cc23)CN1 (stereo not shown) [Compound 15]
- ED50 [1, 21]: 91.2 µmol/kg

Molecule: CCOC(=O)c1ncc2[nH]c3cccc(OCc4ccccc4)c3c2c1COC [ethyl-5-benzyloxy-4-methoxymethyl β-carboline-3-carboxylate]
- effect on feeding (hyperphagic / anorectic) [2]: hyperphagic

Molecule: CC(=O)N1CCc2c(n(Cc3ccccc3)c3ccccc23)C1 [Compound 27, 2 acetyl-9 benzyl-1,2,3,4-tetrahydro-β-carboline]
- ED50 [1, 20]: 0.0339 µmol/kg
- ED50 [1, 21]: 29.5 µmol/kg

Molecule: c1ccc2c3c([nH]c2c1)CNCC3 [Compound 1, 1,2,3,4-tetrahydro-β-carboline]
- behavioral effects, intraventricular [5]: reduce motor activity, induce apparent anxiety, and increase voluntary ethanol consumption
- feeding depression / dose-response behavior [3]: little feeding depression at low dosage, but relatively complete feeding depression at higher dosage
- depolarization-induced 5 HT efflux [6]: enhances
- competition for brain 5-HT binding sites [7]: low affinity
- inhibition of 5-HT oxidative deamination [8]: weakly inhibits
- competition for brain tryptamine binding sites [9]: low affinity
- plasma corticosterone [10]: elevated
- plasma prolactin levels [10]: dose-dependent elevation
- serum luteinizing hormone levels [10]: decreased
- ED50 [1, 18]: 0.0145 µmol/kg
- ED50 [1, 19]: 69.2 µmol/kg
- dose eliciting significant hypothermia [11]: ≥ 6.25 mg/kg
- deaths ([12]; 49 mg/Kg/day or greater): 6 out of the 24
- treatment day by which food consumption returns to normal (tolerance) ([12]; daily oral, in excess of 49 mg/Kg): twelfth
- appetite, smaller daily doses ([12]; daily oral, less than 30 mg/Kg): do not significantly alter appetite
- food intake, daily oral administration ([12]; in excess of 49 mg/Kg daily, after two consecutive days): significant reductions in food intake
- competition for brain spiperone binding sites [13]: low affinity
- competition for brain imipramine binding sites [14]: low affinity
- inhibition of 5-HT uptake [15]: weakly inhibits
- behavioral syndrome at high doses ([16]; high doses): hyperactivity, forepaw treating, body weaving, and circling
- behavioral effects ([16]; parenteral): suppresses locomotion, exploratory activity, and conflict behavior, impairs performance on operantly conditioned learning and memory tasks, reduces seizure susceptibility, prolongs barbiturate sedation, and antagonizes specific drug induced stereotypic behavior

Molecule: CC(=O)N1CCc2c([nH]c3ccccc23)C1 [Compound 16, 2-acetyl-1,2,3,4-tetrahydro-β-carboline]
- feeding depression / dose-response behavior [3]: The same behavior was observed
- ED50 [1, 20]: 0.0162 µmol/kg
- ED50 [1, 21]: 61.7 µmol/kg

Molecule: CCNC(C)Cc1cccc(C(F)(F)F)c1 (stereo not shown) [fenfluramine]
- clinical efficacy [17]: inadequate clinical efficacy
- patient complaints (side effects) [17]: drowsiness and headache

Molecule: Clc1ccc2[nH]c3c(c2c1)CCNC3 [Compound 8, 6-chloro-1,2,3,4-tetrahydro-β-carboline hydrochloride]
- ED50 [1, 18]: 0.0347 µmol/kg
- ED50 [1, 19]: 28.8 µmol/kg

Molecule: CNC(=O)c1cc2c(cn1)[nH]c1ccccc12 [β-carboline-3-carboxylic acid methyl amide]
- food consumption by partially sated rats ([2]; 10.0 mg/Kg, intraperitoneal): 30 % of control
- effect on feeding (hyperphagic / anorectic) [2]: anorectic

Molecule: Fc1ccc2c3c([nH]c2c1)CNCC3 [Compound 5, 7-fluoro-1,2,3,4-tetrahydro-β-carboline hydrochloride]
- ED50 [1, 18]: 0.0214 µmol/kg
- ED50 [1, 19]: 46.8 µmol/kg

Molecule: ethyl -isopropoxy-4-methyl-β-carboline-3-carboxylate
- effect on feeding (hyperphagic / anorectic) [2]: hyperphagic
